The species named for data set [1] is Mus musculus. Nature of the data set: Toxicity in mouse at 20 mg as single dose. To be noted: in vivo. Type of data set: organism-based.
Data set [2] is filed under the species Mus musculus. Put plainly: Antiinflammatory activity against MOG peptide-induced experimental autoimmune encephalomyelitis mouse model assessed as CD3 marker measured on day 24 after 2 weeks of treatment (reference value: 4.8 +/- 0.19 /mm'2). Type of data set: functional.
For data set [3], the species on record is Mus musculus. Nature of the data set: Toxicity in mouse at 10 mg for 5 days. Type of data set: organism-based. To be noted: in vivo, 120 h.

The structures appear in SMILES notation.

For the compound `CC1(C)NC(=O)N(CN2CCNCC2)C1=O`, the Activity entry in the data set listed under Mus musculus [1] is “Non-toxic”; in the data set filed under Mus musculus [2], 3.8 mm2; in the data set listed under Mus musculus [3] it was “Non-toxic”.
